Results as given in patent US9314506B2, “Methods for increasing insulin secretion by co-stimulation of corticotropin-releasing factor receptors” (Research Development Foundation, priority 2011, dated 2016).

B1: Ucn 1: Urocortin 1, agonist of both CRF1 and CRF2 receptors, expressed transgenically in mouse beta cells under doxycycline control (protein, listed as Homo sapiens)
chain: MRQAGRAALLAALLLLVQLCPGSSQRSPEAAGVQDPSLRWSPGARNQGGGARALLLLLAERFPRRAGPGRLGLGTAGERPRRDNPSLSIDLTFHLLRTLLELARTQSQRERAEQNRIIFDSVGK

Key:
Human islets = experiment: Insulin secretion from cultured human islets (insulin ELISA); assay type: cell-based; details: FIG. 1; for Insulin secretion, single agonist: human islets, 60 min stimulation with glucose and peptide, single CRF receptor agonist added
Protocol: Human islets were handpicked twice and cultured overnight in CMRL-1066 medium (Invitrogen™) supplemented with 10% fetal bovine serum (FBS) and penicillin/streptomycin at 37° C., 5% CO2. Islets were starved in RPMI 1640 medium supplemented with 1.4 mM glucose and 0.1% BSA for 60 min and then were transferred into 1.2 mL of medium (RPMI 1640 supplemented with 2.8 mM glucose, 0.1% BSA) in 24-well plates at 100 islets/well. After 60 min, 600 μL of medium was collected for the determination of basal insulin release, and then islets were stimulated for 60 min with glucose and peptide as indicated in RPMI 1640 containing 0.1% BSA. Samples were diluted 20 times in RPMI 1640 with 0.1% BSA and were stored at −20° C. until determination of insulin concentrations with an insulin ELISA kit (Mercodia AB).
Peptides used in the studies were ovine CRF (oCRF), a selective CRF-R1 agonist; human Urocortin 3 (hUcn 3), a selective CRF-R2 agonist; antalarmin, a selective CRF-R1 antagonist; and astressin2-B, a selective CRF-R2 antagonist. […] Insulin secretion was enhanced by addition of either a CRF1 receptor agonist (oCRF) or a CRF2 receptor agonist (hUcn 3). […] The synergistic enhancement was inhibited by the addition of either a CRF1 receptor antagonist (antalarmin) or a CRF2 receptor antagonist (astressin2-B) to the cells (FIG. 1).

[1] = test system: pancreatic beta cell mass; experiment: Beta cell mass in doxycycline-inducible, beta cell-specific Ucn 1 transgenic mice; assay type: in vivo; details: bitransgenic mouse, doxycycline for 6 weeks (21 days to 9 weeks of age), vs single transgenic controls on dox or bitransgenic without dox; FIG. 5
Source text: A transgenic mouse model that features beta cell-specific, doxycycline-inducible expression of Ucn 1 was generated by routine transgenic techniques. Single transgenic mice were obtained comprising either an expressible tetracycline transactivator (tTA) protein under the control of a pancreas-specific Insulin2 promoter (Jax Stock#008250 STOCK Tg(Ins2-rtTA)2Efr/J) or expressible Ucn1 under the control of a tTA protein-activated promoter (see, e.g., Sun et al., 2007 and Mallo, 2006). Single transgenic mice were crossed to generate the bitransgenic mice referenced in the studies. Thus, transgenic Ucn 1 expression in beta cells requires the presence of two transgenic cassettes as well as the administration of doxycycline. […] Bitransgenic animals, along with single transgenic controls, were administered doxycyline continuously as indicated from 21 days until 9 weeks of age. […] Sections were mounted in fluorescence mounting media containing dapi counterstain. Each section was scanned and the total pancreas surface area (based on the dapi counterstain) and the total beta cell surface area (based on the insulin-Cy3 stain) were quantified using standard morphometry techniques using Metamorph software. Beta cell area in each animal was expressed as the insulin+ surface area as a percentage of the total surface area (FIG. 5).

Molecule	Insulin secretion, single agonist (Human islets)	other results
CCCCN(CC)c1nc(C)nc2c1c(C)c(C)n2-c1c(C)cc(C)cc1C [antalarmin]	–	Effect of antagonist on the synergistic enhancement of insulin secretion (Human islets; human islets co-stimulated with CRF1 and CRF2 receptor agonists, antagonist added): inhibited
hUcn 3: human Urocortin 3, a selective CRF-R2 agonist (FTLSLDVPTNIMNLLFNIAKAKNLRAQAAANAHLMAQI)	enhanced	–
oCRF: ovine CRF, a selective CRF-R1 agonist (SQEPPISLDLTFHLLREVLEMTKADQLAQQAHSNRKLLDIA)	enhanced	–
B1	–	Beta cell mass (insulin+ surface area as a percentage of total pancreas surface area) [1]: robust increase
